Key:
Conditions in all cases: comparison in words
rat stomach = assay: Cascade assay, rat stomach fundus in vitro; format: cell-based
Procedure: (§1) The smooth muscle stimulant effects of the test compounds were determined simultaneously in four different tissues that are known to be reactive to naturally occurring prostaglandins. Segments of rat stomach fundus, rat colon, chick rectum and rabbit aortic strip were obtained as described by: Vane, J. R., Brit. J. Pharmacol., 12: 344 (1957); Regoli, D. and Vane, J. R., Brit. J. Pharmacol., 23: 351 (1964); Mann, M. and West, G. B., Brit. J. Pharmacol., 5: 173 (1950); and Furchgott, R. F. and Bhadrakom, R., J. Pharmacol. Exper. Ther., 108: 129 (1953). One end of each preparation was tied to the bottom of a 10 ml tissue chamber and the other to a force displacement transducer (Grass FT-03) for continuous tension recording. The stomach, colon, and rectum segments were stretched to an initial tension of 1 g, while the aortic strip was subjected to 4 g. All preparations were left undisturbed for 1 hour prior to ptesting. The chambers were equipped with an external jacket through which water, maintained at 40° C., was circulated. […]
(§2) Test compounds were diluted from stock solutions so as to administer quantities ranging from 0.0001 to 100,000 ng in a volume of 0.5 ml. […] Maximal increases in tension after each dose were measured and the results were used to plot dose-response curves. […]
(§3) Activity in each tissue was scored according to the following scale: […]

rat colon = assay: Cascade assay, rat colon in vitro; format: cell-based
Procedure: as §1, §2, §3

[1] = system: blood pressure and heart rate in the anesthetized cat; assay: Effects on blood pressure and heart rate in the anesthetized cat; format: in vivo
Procedure: The acute effects of test compounds on blood pressure and heart rate were determined in cats of either sex anesthetized with a mixture of pentobarbital sodium (35 mg/kg, i.v.) and barbital sodium (100 mg/kg, i.v.). Cannulas were placed in the trachea to allow adequate spontaneous ventilation, in a femoral artery for blood pressure recording with a strain gage transducer, and in a saphenous vein for drug administration.
Heart rate was recorded by means of a cardiotachometer driven by the R wave of the electrocardiogram. After a period of 10 minutes of stable recordings of blood pressure and heart rate, the test compound was administered intravenously at doses increasing from 0.01 to 10.0 mcg/kg, spaced one log and injected at 10 minute intervals. All doses were injected in a volume of 0.1 ml/kg. Modifications of blood pressure and heart rate induced by the test compound were expressed both in absolute units (mmHg and beats/minute) and as percent of values recorded immediately before administration of each dose. Biphasic responses were tabulated in the order in which they occurred. […]
Activity of compounds in this test was judged only on the basis of the degree of hypotension observed. Thus, the ED50 mmHg (dose decreasing blood pressure by 50 mmHg) was calculated graphically, and the compound scored according to the following scale: […]

[2] = system: rat stomach, rat colon, chick rectum, and rabbit aorta; assay: Cascade assay, all four tissues; format: cell-based
Procedure: as §1, §2, §3

| SMILES | Cascade stomache value, methyl ester versus carbinol (rat stomach) | Cascade colon value, methyl ester versus carbinol (rat colon) | Feline blood pressure and heart rate value, methyl ester versus carbinol [1] | Cascade values, methyl ester versus carbinol [2] |
| --- | --- | --- | --- | --- |
| CCCCC(O)C/C=C/[C@H]1[C@H](O)CC(=O)[C@@H]1CCCCCCC(=O)OC (stereo partly drawn) [TR 4705, Methyl 11α, 16RS-dihydroxy-9-oxoprost-13E-en-1-oate, reference compound] | higher | higher |  |  |
| CCCCC(C)(O)C/C=C/[C@H]1[C@H](O)CC(=O)[C@@H]1CCCCCCC(=O)OC (stereo partly drawn) [TR 4704, Methyl 11α, 16RS-dihydroxy-16-methyl-9-oxoprost-13E-oate, reference compound] |  |  | significantly and undesirably higher | significantly and undesirably higher |
